According to patent US20260297042A1, “BIARYLAMIDE DERIVATIVES AND THEIR USE AS PKMYT1 INHIBITORS” (CANCER RESEARCH TECHNOLOGY LIMITED, priority 2023, published 2026):

How the values were obtained:
[1] = system: KYSE-30 cells; assay: Cancer cell line proliferation assay, ATP-based cell viability (Cell Titre Glow), KYSE-30 (normal CCNE1); settings: Homo sapiens, KYSE-30 cells (normal CCNE1), concentration that achieves 50% cell growth proliferation inhibition, read-out: KYSE30 Gl50
In short: (§1)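 Cells were treated with PKMYT1 inhibitors, then proliferation was assessed with CellTiter-Glo and luminescence read. GI50 values were fitted from the resulting data.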

[2] = biological target: T1, WEE1 (Homo sapiens, UniProt P30291); assay: Selectivity versus WEE1 assay (ADP-Glo enzymatic assay); assay type: biochemical; settings: for IC50: ADP-Glo; for PKMYT1 vs. WEE1 selectivity: fold difference in selectivity for PKMYT1 over WEE1
T1 construct: purchased Thermo Fisher PR7373A
T1 sequence (P30291 whole entry): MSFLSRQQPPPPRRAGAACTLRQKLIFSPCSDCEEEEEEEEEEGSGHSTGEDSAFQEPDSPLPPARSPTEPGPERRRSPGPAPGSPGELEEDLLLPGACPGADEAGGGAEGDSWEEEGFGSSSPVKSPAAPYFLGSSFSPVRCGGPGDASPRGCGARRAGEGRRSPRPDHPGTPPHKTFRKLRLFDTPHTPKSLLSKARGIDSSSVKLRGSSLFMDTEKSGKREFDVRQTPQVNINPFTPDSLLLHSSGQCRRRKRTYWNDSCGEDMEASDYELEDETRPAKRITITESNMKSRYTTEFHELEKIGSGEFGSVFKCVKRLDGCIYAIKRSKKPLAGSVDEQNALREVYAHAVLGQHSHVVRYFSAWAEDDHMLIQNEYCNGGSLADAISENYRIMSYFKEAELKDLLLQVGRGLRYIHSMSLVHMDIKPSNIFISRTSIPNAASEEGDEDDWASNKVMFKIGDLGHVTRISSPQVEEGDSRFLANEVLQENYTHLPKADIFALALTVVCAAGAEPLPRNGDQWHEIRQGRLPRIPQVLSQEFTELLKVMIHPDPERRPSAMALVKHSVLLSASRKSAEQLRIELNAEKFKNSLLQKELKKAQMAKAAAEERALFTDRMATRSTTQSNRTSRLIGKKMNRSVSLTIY
In short: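 Same format as the PKMYT1 assay: WEE1 at 15 nM final with 30 µM ATP, 60 min at 26° C, ADP-Glo luminescence detection, IC50 by dose-response fitting.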

[3] = system: OVCAR 3 cells; assay: Cancer cell line proliferation assay, ATP-based cell viability (Cell Titre Glow), OVCAR 3 (CCNE1-amplified); settings: KYSE30 (normal CCNE1) GI50 vs. OVCAR 3 (CCNE1-amplified) GI50
In short: as §1

[4] = biological target: T2, Human PKMYT1 (Homo sapiens, UniProt Q99640); assay: PKMYT1 biochemical ADP-Glo enzymatic assay; settings: ADP-Glo
T2 construct: Human PKMYT1 75-362 was cloned as a TEV cleavable 6xHis fusion; 6xHis (TEV cleavable) (cleaved yes); made in house; host or cells: bacterial cells
T2 sequence (Q99640 75-362): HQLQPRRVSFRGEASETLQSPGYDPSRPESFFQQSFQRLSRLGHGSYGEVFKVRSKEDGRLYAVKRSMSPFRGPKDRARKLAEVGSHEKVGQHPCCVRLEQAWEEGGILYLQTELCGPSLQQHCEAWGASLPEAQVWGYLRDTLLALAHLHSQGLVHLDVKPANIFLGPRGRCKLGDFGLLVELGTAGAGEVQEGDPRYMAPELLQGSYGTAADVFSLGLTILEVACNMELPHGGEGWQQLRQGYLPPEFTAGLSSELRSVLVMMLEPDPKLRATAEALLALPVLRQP
In short: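 Measures inhibition of PKMYT1 autonomous ATP hydrolysis: bacterially expressed human enzyme (75-362, tag cleaved) at 15 nM with 500 µM ATP for 60 min at 26 °C, then ADP-Glo Max detection. IC50s accepted only when replicates agreed within 3-fold and curve r2 exceeded 0.9.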

[5] = 15 nM WEE1, 60 minutes at 26° C., banded
[6] = banded, ">N" = at least in this band but could be higher
[7] = 15 nM PKMYT1 kinase domain, 500 µM ATP, 60 minutes at 26° C., banded
[8] = PKMYT1 kinase domain 15 nM, banded values

Row | SMILES | GI50 [1] | IC50 [2, 5] | PKMYT1 vs. WEE1 selectivity [2, 6] | Selectivity ratio KYSE30 Gl50 vs. OVCAR3 Gl50 [3] | IC50 [4, 7] | IC50 ([2]; WEE1 15 nM, banded values) | PKMYT1 vs. WEE1 selectivity ([2]; banded) | IC50 [4, 8]
1 | Cc1ccc(O)c(C)c1NC(=O)c1cnc(Nc2cc(-c3ccc(F)cc3)ccn2)s1 [BAA-294, 2-((4-(4-fluorophenyl)pyridin-2-yl)amino)-N-(3-hydroxy-2,6-dimethylphenyl)thiazole-5-carboxamide] | > 5000 nM | > 11000 nM | X (100-<1000 fold) | Y (>20 fold) | 50 to 1000 nM | – | – | –
2 | Cc1ccc(O)c(C)c1NC(=O)c1cnc(Nc2cc(C(F)(F)F)nc(NCCC(C)(C)C)n2)s1 [BAA-322, 2-((2-((3,3-dimethylbutyl)amino)-6-(trifluoromethyl)pyrimidin-4-yl)amino)-N-(3-hydroxy-2,6-dimethylphenyl)thiazole-5-carboxamide] | 500 to 5000 nM | > 11000 nM | X (100-<1000 fold) | Y (>20 fold) | 50 to 1000 nM | – | – | –
3 | Cc1ccc(O)c(C)c1NC(=O)c1cnc(Nc2nn(C)c(C)c2C)s1 [BAA-128, N-(3-hydroxy-2,6-dimethyl-phenyl)-2-[(1,4,5-trimethylpyrazol-3-yl)amino]thiazole-5-carboxamide] | > 5000 nM | 1000 to 11000 nM | X (100-<1000 fold) | Y (>20 fold) | 50 to 1000 nM | – | – | –
4 | Cc1ccc(O)c(C)c1NC(=O)c1cnc(Nc2cc(C)n(C3CCCC3)n2)s1 [BAA-232, 2-((1-cyclopentyl-5-methyl-1H-pyrazol-3-yl)amino)-N-(3-hydroxy-2,6-dimethylphenyl)thiazole-5-carboxamide] | > 5000 nM | 1000 to 11000 nM | W (10-<100 fold) | Y (>20 fold) | < 50 nM | – | – | –
5 | Cc1cn(-c2ccc(Cl)cn2)nc1Nc1ncc(C(=O)Nc2c(C)ccc(O)c2C)s1 [BAA-376, 2-((1-(5-Chloropyridin-2-yl)-4-methyl-1H-pyrazol-3-yl)amino)-N-(3-hydroxy-2,6-dimethylphenyl)thiazole-5-carboxamide] | 500 to 5000 nM | > 11000 nM | X (100-<1000 fold) | Y (>20 fold) | 50 to 1000 nM | – | – | –
6 | Cc1cn(-c2cn(C)nc2C)nc1Nc1ncc(C(=O)Nc2c(C)ccc(O)c2C)s1 [BAA-392, N-(3-hydroxy-2,6-dimethylphenyl)-2-((1′, 3′,4-trimethyl-1′H-[1,4′-bipyrazol]-3-yl)amino)thiazole-5-carboxamide] | > 5000 nM | 1000 to 11000 nM | X (100-<1000 fold) | Y (>20 fold) | < 50 nM | – | – | –
7 | Cc1ccc(O)c(C)c1NC(=O)c1cnc(Nc2nn(C)cc2Cl)s1 [BAA-541, 2-((4-chloro-1-methyl-1H-pyrazol-3-yl)amino)-N-(3-hydroxy-2,6-dimethylphenyl)thiazole-5-carboxamide] | > 5000 nM | – | – | Y (>20 fold) | – | 1000 to 11000 nM | X (100-<1000 fold) | < 50 nM
8 | Cc1cc(Nc2ncc(C(=O)Nc3c(C)ccc(O)c3C)s2)nc(-c2ccc(F)cc2)n1 [BAA-307, 2-((2-(4-fluorophenyl)-6-methylpyrimidin-4-yl)amino)-N-(3-hydroxy-2,6-dimethylphenyl)thiazole-5-carboxamide] | 500 to 5000 nM | > 11000 nM | Y (1000-5000 fold) | Y (>20 fold) | 50 to 1000 nM | – | – | –
9 | Cc1cn(CC(C)O)nc1Nc1ncc(C(=O)Nc2c(C)ccc(O)c2C)s1 (centres unmarked) [BAA-499, N-(3-hydroxy-2,6-dimethylphenyl)-2-((1-(2-hydroxypropyl)-4-methyl-1H-pyrazol-3-yl)amino)thiazole-5-carboxamide] | > 5000 nM | – | – | Y (>20 fold) | – | 1000 to 11000 nM | X (100-<1000 fold) | < 50 nM
10 | Cc1cn(-c2ccc(C(F)(F)F)nc2)nc1Nc1ncc(C(=O)Nc2c(C)ccc(O)c2C)s1 [BAA-367, N-(3-hydroxy-2,6-dimethylphenyl)-2-((4-methyl-1-(6-(trifluoromethyl)pyridin-3-yl)-1H-pyrazol-3-yl)amino)thiazole-5-carboxamide] | > 5000 nM | > 11000 nM | X (100-<1000 fold) | Y (>20 fold) | 50 to 1000 nM | – | – | –
11 | Cc1cn(-c2ncc(C(=O)Nc3c(C)ccc(O)c3C)s2)nc1Nc1ncc(C(=O)Nc2c(C)ccc(O)c2C)s1 [BAA-393, N-(3-hydroxy-2,6-dimethylphenyl)-2-((1-(5-((3-hydroxy-2,6-dimethylphenyl)carbamoyl)thiazol-2-yl)-4-methyl-1H-pyrazol-3-yl)amino)thiazole-5-carboxamide] | 500 to 5000 nM | – | – | X (3-20 fold) | – | > 11000 nM | X (100-<1000 fold) | 50 to 1000 nM
12 | CCN(CC(F)(F)F)C(=O)Cn1cc(C)c(Nc2ncc(C(=O)Nc3c(C)ccc(O)c3C)s2)n1 [BAA-502, 2-((1-(2-(ethyl(2,2,2-trifluoroethyl)amino)-2-oxoethyl)-4-methyl-1H-pyrazol-3-yl)amino)-N-(3-hydroxy-2,6-dimethylphenyl)thiazole-5-carboxamide] | > 5000 nM | – | – | Y (>20 fold) | – | 1000 to 11000 nM | X (100-<1000 fold) | < 50 nM
13 | Cc1cn(-c2cccc(C(F)(F)F)c2)nc1Nc1ncc(C(=O)Nc2c(C)ccc(O)c2C)s1 [BAA-370, N-(3-hydroxy-2,6-dimethylphenyl)-2-((4-methyl-1-(3-(trifluoromethyl)phenyl)-1H-pyrazol-3-yl)amino)thiazole-5-carboxamide] | 500 to 5000 nM | > 11000 nM | X (100-<1000 fold) | X (3-20 fold) | < 50 nM | – | – | –
14 | Cc1ccc(O)c(C)c1NC(=O)c1cnc(Nc2cccc(N3CCC(N)CC3)n2)s1 [BAA-274, 2-((6-(4-aminopiperidin-1-yl)pyridin-2-yl)amino)-N-(3-hydroxy-2,6-dimethylphenyl)thiazole-5-carboxamide] | 500 to 5000 nM | 1000 to 11000 nM | W (10-<100 fold) | Y (>20 fold) | < 50 nM | – | – | –
15 | Cc1ccc(O)c(C)c1NC(=O)c1cnc(Nc2cccc(-c3ncccn3)n2)s1 [BAA-403, N-(3-hydroxy-2,6-dimethylphenyl)-2-((6-(pyrimidin-2-yl)pyridin-2-yl)amino)thiazole-5-carboxamide] | > 5000 nM | – | – | Y (>20 fold) | – | 50 to 1000 nM | W (10-<100 fold) | < 50 nM
16 | Cc1ccc(NS(=O)(=O)C(C)(C)C)nc1Nc1ncc(C(=O)Nc2c(C)ccc(O)c2C)s1.Cl [BAA-335, 2-((6-((1,1-dimethylethyl)sulfonamido)-3-methylpyridin-2-yl)amino)-N-(3-hydroxy-2,6-dimethylphenyl)thiazole-5-carboxamide hydrochloride] | 500 to 5000 nM | > 11000 nM | Y (1000-5000 fold) | Y (>20 fold) | < 50 nM | – | – | –
